SMILES strings stand for the structures. Converted amounts (≈) assume the structure as drawn.

In series [1] the test system is Anas platyrhynchos.
Series [2] deals with Apis mellifera. Conditions: acute; duration: 96 hours; dermal; mortality.
The test system of series [3] is Bibionidae. Conditions: chronic/long-term; duration: 28 days.
In series [4] the test system is Colinus virginianus. Conditions: reproduction developmental.
The test system of series [5] is Cyprinodon variegatus. To be noted: acute; duration: 96 hours; mortality.
The subject of series [6] is Daphnia magna. Conditions: chronic/long-term; duration: 21 days; reproduction.
Series [7] concerns Oncorhynchus mykiss. To be noted: acute; duration: 96 hours; mortality.
Series [8] relates to Pimephales promelas. Conditions: chronic/long-term; duration: 272 days; growth.
Series [9] deals with Rattus norvegicus.
In series [10] the test system is Tagia sp. Conditions: acute; duration: 14 days; mortality.
For series [11], the system named is Typhlodromus pyri. Description: LR50; higher = less toxic. Conditions: acute; duration: 7 days; mortality.

`C#CCOS(=O)OC1CCCCC1Oc1ccc(C(C)(C)C)cc1` (stereo not drawn) [Propargite]: the LD50 was more than 4640 mg/kg in series [1] (acute, oral, unspecified, mortality); 47.9 µg/piece in series [2]; 2640 mg/kg-day in [9] (acute, oral, mortality). Moreover, the NOEC was found to be 13.5 mg/kg-day in series [1] (reproductive); 0.32 mg/L in series [3]; 142 mg/kg-day in [4]; 0.009 mg/L in series [6]; 0.0057 mg/L in [8]. Also, the figures for the LC50 in series [5], in [7] and in [10] were 0.055 µg/mL (≈ 0.157 µM), 0.043 µg/mL (≈ 0.123 µM) and 378 mg/kg, respectively. The molecule also came in with an NOEL in [9] (chronic) of 6.3 mg/kg-day. The molecule further registered an LR50 in [11] of 4.5 g/ha.

(Values after EPA's ToxValDB 9.5 (doi:10.2903/j.efsa.2011.2087).)
